Test results taken from patent publication US20090209633A1, “Treatment of Pain With Resiniferatoxin and Related Analogs” (priority 2006, published 2009).

Target: T1, native TRPV1 (Rattus norvegicus, UniProt O35433)
T1 construct: RTX-induced membrane currents on native TRPV1 in embryonic DRG neurons grown in culture; endogenous in cells; host or cells: primary rat E18 DRG neurons
Assay: Whole-cell currents in cultured embryonic DRG neurons (patch clamp)
Assay type: cell-based
Details: for activation phase of whole-cell current: −60 mV; for reversibility of induced current: RTX 10 and 100 nM, washout >15 min
Experimental: Electrophysiology. Whole-cell and single-channel currents were recorded from rat DRG neurons in culture and from Xenopus laevis oocytes injected with rat TRPV1 cRNA. Animals were cared for according to the standards of the National Institutes of Health (NIH). All animal use protocols were approved by Southern Illinois University School of Medicine Animal Care Committee.
Primary DRG neuronal cultures were prepared from embryonic day 18 (E18) rat embryos. Adult pregnant rats were killed with an overdose of isoflurane. DRG were dissected and the cells were dissociated by triturating with a fire-polished glass pipette. Cells were cultured in Neurobasal medium (Life Technologies, Buffalo, N.Y., USA), supplemented with 10% fetal bovine serum (FBS), and grown on poly-D-lysine-coated glass coverslips. Cells were used from 5 to 15 days after plating. Small diameter (<30 μm) rounded neurons were selected for patch-clamp experiments. […] The Giga-seal patch-clamp technique was used to record whole-cell currents. For perforated-patch recordings, the bath solution contained (mM): sodium gluconate 140, KCl 2.5, Hepes 10, MgCl2 1 and ethylene glycol bis(2-aminoethyl ether)-N,N,N′N′-tetraacetic acid (EGTA) 1.5 (pH adjusted to 7.35 with NaOH), and the pipette solution contained (mM): sodium gluconate 130, NaCl 10, KCl 2.5, Hepes 10, MgCl2 1, EGTA 1.5 and 240 μg/ml^−1 amphotericin B (pH adjusted to 7.35 with NaOH). For current-clamp experiments the pipette solution contained (mM): potassium gluconate 130, NaCl 10, MgCl2 1, EGTA 0.2, K2ATP 1 and Hepes 10; pH adjusted to 7.35 with NaOH. Extracellular solution for current- and voltage-clamp experiments contained (mM): NaCl 140, KCl 4, MgCl2 1 and Hepes 10; pH adjusted to 7.35 with NaOH. Currents were recorded using a WPC 100 patch-clamp amplifier (E.S.F. Electronic, Goettingan, Germany). Data were filtered at 10 kHz, digitized (VR-10B, Instrutech Corp., Great Neck, N.Y., USA) and stored on videotapes or directly stored in the computer using a LabView interface. For analysis of whole-cell currents, data were filtered at 1 kHz (−3 db frequency with an 8-pole low-pass Bessel filter, Warner Instruments, LPF-8) and digitized at 2 kHz.
This example tests the activation of whole-cell current in DRG neurons by RTX. We determined the properties of RTX-induced membrane currents on native TRPV1 in embryonic DRG neurons grown in culture. […] Protons were not used to elicit currents because of the presence of acid-sensitive ion channels in these neurons.

T1 sequence (O35433 whole entry): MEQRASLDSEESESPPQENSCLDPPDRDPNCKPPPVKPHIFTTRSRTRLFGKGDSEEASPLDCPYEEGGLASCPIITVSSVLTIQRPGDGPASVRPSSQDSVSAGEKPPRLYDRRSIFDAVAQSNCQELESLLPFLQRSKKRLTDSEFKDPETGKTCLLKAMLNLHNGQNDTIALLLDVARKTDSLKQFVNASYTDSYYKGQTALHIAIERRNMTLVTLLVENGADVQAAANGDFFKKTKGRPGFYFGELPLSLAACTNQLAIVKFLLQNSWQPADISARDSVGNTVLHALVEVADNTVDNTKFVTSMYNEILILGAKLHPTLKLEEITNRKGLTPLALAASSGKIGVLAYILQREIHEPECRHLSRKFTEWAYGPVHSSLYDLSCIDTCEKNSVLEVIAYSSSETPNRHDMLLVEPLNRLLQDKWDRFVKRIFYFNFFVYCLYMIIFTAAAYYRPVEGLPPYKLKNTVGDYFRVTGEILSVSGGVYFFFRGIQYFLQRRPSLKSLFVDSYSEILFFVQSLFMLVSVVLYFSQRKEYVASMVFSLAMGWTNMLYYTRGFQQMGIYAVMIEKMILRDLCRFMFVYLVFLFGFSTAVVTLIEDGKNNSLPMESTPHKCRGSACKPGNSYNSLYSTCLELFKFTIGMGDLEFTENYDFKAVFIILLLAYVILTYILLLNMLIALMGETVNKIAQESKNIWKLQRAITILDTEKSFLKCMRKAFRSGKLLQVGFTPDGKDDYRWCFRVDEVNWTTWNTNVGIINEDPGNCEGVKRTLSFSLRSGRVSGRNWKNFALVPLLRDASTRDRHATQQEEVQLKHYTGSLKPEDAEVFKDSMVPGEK

| Compound | activation phase of whole-cell current (RTX 10 nM) [s] | activation phase of whole-cell current (RTX 100 nM) [s] | reversibility of induced current (capsaicin 1 μM) | activation phase of whole-cell current (capsaicin 1 μM) [s] | neurons responding to capsaicin (small diameter cultured DRG neurons) |
| --- | --- | --- | --- | --- | --- |
| C=C(C)[C@]12C[C@@H](C)[C@@]34O[C@](Cc5ccccc5)(O[C@@H]1[C@@H]3C=C(COC(=O)Cc1ccc(O)c(OC)c1)C[C@]1(O)C(=O)C(C)=C[C@@H]41)O2 [RTX, resiniferatoxin] | 69 ± 10.9 | 29.35 ± 2.65 | could not be reversed readily | – | – |
| COc1cc(CNC(=O)CCCC/C=C/C(C)C)ccc1O [capsaicin] | – | – | readily reversible | 7.14 ± 0.42 | More than 70% |
